Patent publication US7803801B2, “Aminopyridine compounds having Syk inhibitory activity” (Japan Tobacco, Inc., priority 2005, dated 2010)
Read-outs that look alike come from different tables or passages of the source.

Experiments:
[1] = molecular target: GST-Syk Full Protein (human) (Homo sapiens, UniProt P43405); assay: Syk kinase inhibition test (HTRF method); format: biochemical; details: read-out: sykHTRF ave IC50
Procedure, shortened: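 HTRF read-out: after EDTA termination and 1 h with XL665-streptavidin and Eu-anti-phosphotyrosine, the 665/620 nm ratio was measured. The reaction ran 30 min at 20–25 °C with final 6.4 nM human GST-Syk, 250 nM biotinylated peptide, 100 μM ATP, pH 7.0 HEPES buffer, 2% DMSO.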

[2] = test system: cultured human mast cells; assay: Degranulation inhibition test using cultured human mast cells (IgE cross-linking, β-Hexosaminidase release); format: cell-based; details: Mast cell, cultured human mast cells, read-out: human degranulation ave. IC50
Procedure, shortened: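 Degranulation was triggered by anti-hIgE (10 μg/mL final, 30 min, 37 °C) after a 10-min compound pretreatment (DMSO 0.1%) of cord-blood CD34+-derived mast cells primed 5 days with IL-4 and IgE. β-Hexosaminidase in supernatant was measured with p-nitrophenyl-GlcNAc substrate (A405), expressed against water-lysed total; IC50 (M).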

[3] = HTRF, 100 μM ATP, 30 min room temperature, average
[4] = anti-hIgE stimulation, β-Hexosaminidase index, average

Row | IC50 ([1]; Tables 1-x, compounds A) | IC50 ([2]; Tables 1-x, compounds A) | IC50 [1, 3] | IC50 [2, 4] | SMILES
1 | < 100 nM | 100 to 1000 nM | – | – | Cc1ccnc(Nc2cccc(-c3cnc(N4CCC(NC(=O)CO)CC4)s3)n2)c1 [Compound A-482, 2-hydroxy-N-(1-{5-[6-(4-methylpyridin-2-ylamino)pyridin-2-yl]thiazol-2-yl}piperidin-4-yl)acetamide]
2 | – | – | 100 to 1000 nM | 100 to 1000 nM | Cc1ccnc(Nc2cccc(-c3cnc(CCc4ccc(C(=O)N5CCC(O)CC5)cc4)s3)n2)c1 [Compound A-233]
3 | – | – | 100 to 1000 nM | 100 to 1000 nM | Cc1ccnc(Nc2cccc(-c3cnc([C@H](C)NC(=O)c4ccc(O)cc4)s3)n2)c1 [Compound A-347]
